Assay results reported in ChEMBL document CHEMBL1201862, “PubChem BioAssay data set” (2004).
The source made the active and inactive calls.

How the values were obtained:
[1] = biological target: FAD-linked sulfhydryl oxidase ALR (Homo sapiens, UniProt P55789); assay: ALR-catalysed DTT oxidation blockers – biochemical, H2O2 detection, luminescence, cherry-pick, dose response (AID 493248)
[2] = biological target: Large T antigen (Simian virus 40, UniProt P03070); assay type: functional, Betapolyomavirus macacae;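 further: Confirmatory-stage PubChem screen for compounds that inhibit SV40 T antigen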
Sequence of Large T antigen (P03070 whole entry): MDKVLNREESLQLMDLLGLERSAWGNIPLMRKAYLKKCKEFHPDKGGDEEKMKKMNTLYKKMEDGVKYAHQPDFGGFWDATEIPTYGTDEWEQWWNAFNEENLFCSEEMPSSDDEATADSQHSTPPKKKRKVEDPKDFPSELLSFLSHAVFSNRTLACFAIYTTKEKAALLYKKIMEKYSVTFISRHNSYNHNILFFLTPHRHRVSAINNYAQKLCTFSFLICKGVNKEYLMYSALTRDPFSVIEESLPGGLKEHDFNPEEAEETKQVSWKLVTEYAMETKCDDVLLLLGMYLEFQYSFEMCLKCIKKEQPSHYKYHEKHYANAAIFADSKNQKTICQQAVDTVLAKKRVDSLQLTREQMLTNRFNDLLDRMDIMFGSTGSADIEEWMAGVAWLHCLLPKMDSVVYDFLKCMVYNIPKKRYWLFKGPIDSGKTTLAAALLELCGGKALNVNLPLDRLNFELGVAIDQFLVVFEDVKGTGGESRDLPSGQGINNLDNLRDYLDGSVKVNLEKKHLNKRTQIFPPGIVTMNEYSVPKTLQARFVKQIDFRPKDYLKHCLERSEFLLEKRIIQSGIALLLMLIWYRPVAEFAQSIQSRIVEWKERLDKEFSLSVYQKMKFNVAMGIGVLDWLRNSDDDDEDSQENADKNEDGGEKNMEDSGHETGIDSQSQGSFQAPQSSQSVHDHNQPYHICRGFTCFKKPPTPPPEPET

[3] = biological target: Paired box protein Pax-8 (Homo sapiens, UniProt Q06710); assay: PAX8 transcriptional activity inhibition in RMG-I – RMG-I cells, luciferase, cherry-pick, dose response (AID 687027); assay type: functional, cell-based;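 further: luciferase reporter driven by Pax8 target thyroperoxidase promoter measured by SteadyGlo luminescence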
Sequence of Paired box protein Pax-8 (Q06710 whole entry): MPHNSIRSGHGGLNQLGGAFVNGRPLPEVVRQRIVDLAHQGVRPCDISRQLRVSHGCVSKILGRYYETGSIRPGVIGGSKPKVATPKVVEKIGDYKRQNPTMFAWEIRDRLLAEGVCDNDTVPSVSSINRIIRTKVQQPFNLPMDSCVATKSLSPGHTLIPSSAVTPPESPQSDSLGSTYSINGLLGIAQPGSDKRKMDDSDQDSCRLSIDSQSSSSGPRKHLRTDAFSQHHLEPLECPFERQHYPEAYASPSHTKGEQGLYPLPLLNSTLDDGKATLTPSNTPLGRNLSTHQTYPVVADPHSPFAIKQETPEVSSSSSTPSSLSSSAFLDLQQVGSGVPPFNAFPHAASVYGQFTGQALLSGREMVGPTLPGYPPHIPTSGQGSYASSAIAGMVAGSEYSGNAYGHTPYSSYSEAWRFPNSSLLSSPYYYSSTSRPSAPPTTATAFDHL

[4] = biological target: T1, Leucine aminopeptidase (Plasmodium falciparum 3D7, UniProt Q8IL11); assay: P. falciparum M17LAP inhibitors, primary screen, biochemical, fluorogenic H-Leu-NHMec substrate, 1536-well (AID 1619); assay type: functional
T1 sequence (Q8IL11 whole entry): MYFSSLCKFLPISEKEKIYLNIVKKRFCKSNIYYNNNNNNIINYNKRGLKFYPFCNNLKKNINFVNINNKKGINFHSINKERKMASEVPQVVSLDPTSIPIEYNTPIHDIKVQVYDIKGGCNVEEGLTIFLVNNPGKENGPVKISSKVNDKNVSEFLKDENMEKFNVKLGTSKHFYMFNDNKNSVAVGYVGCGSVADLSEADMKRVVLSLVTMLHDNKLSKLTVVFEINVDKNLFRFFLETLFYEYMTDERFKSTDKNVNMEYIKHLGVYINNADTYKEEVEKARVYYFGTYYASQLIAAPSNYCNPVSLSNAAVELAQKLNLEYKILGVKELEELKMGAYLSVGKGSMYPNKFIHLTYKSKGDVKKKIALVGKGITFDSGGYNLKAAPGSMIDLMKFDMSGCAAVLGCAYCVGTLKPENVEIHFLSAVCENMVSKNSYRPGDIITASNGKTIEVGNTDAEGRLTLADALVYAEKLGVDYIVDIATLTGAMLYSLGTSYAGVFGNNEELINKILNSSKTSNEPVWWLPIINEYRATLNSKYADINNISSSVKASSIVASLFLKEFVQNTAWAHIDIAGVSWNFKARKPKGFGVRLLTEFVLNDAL

[5] = biological target: T2, Aminopeptidase N (Plasmodium falciparum FcB1/Columbia, UniProt O96935); assay: malaria alanyl aminopeptidase activity blockers – biochemical, fluorogenic H-Leu-NHMec substrate, 1536-well (AID 1445); parameters: species or system Plasmodium falciparum 3D7, 3D7
T2 sequence (O96935 whole entry): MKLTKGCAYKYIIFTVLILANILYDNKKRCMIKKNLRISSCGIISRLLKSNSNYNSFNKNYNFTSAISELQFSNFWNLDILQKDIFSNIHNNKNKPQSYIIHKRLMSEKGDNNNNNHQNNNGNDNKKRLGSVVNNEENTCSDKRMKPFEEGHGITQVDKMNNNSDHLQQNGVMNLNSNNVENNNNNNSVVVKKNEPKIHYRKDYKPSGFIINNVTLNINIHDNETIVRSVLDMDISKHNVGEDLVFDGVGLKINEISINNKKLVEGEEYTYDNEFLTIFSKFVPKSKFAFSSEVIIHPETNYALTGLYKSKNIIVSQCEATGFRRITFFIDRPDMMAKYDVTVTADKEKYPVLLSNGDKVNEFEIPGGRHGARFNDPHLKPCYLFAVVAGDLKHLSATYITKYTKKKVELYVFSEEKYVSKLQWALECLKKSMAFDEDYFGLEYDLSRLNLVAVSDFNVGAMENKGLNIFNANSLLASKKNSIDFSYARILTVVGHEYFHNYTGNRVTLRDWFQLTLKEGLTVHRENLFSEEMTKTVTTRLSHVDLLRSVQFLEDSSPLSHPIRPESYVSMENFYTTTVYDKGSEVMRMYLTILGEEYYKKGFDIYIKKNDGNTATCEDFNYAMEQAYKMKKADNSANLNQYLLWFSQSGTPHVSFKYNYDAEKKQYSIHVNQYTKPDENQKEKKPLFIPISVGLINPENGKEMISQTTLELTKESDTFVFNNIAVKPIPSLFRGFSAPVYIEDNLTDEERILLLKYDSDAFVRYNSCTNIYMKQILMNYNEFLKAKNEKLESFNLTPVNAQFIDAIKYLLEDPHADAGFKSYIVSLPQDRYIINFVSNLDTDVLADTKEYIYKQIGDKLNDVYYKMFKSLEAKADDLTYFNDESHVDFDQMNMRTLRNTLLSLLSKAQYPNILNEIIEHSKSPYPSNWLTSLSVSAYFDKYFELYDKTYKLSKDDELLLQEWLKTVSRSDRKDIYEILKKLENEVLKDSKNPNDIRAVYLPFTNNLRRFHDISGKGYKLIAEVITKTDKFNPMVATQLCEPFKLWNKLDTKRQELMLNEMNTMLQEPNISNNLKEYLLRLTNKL

[6] = biological target: T3, Heat shock factor protein 1 (Mus musculus, UniProt P38532); assay: enhancement of HSF1-driven luciferase signal – cell-based, NIH3T3, luminescence, dose retest, confirmation (AID 435004); assay type: functional;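 further: stress induced by proteasome inhibitor MG132 added 30 min after compound; luciferase reporter driven by HSF1 response element in NIH3T3 cells; actives raise luminescence as potentiators of the MG132 stress response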
T3 sequence (P38532 whole entry): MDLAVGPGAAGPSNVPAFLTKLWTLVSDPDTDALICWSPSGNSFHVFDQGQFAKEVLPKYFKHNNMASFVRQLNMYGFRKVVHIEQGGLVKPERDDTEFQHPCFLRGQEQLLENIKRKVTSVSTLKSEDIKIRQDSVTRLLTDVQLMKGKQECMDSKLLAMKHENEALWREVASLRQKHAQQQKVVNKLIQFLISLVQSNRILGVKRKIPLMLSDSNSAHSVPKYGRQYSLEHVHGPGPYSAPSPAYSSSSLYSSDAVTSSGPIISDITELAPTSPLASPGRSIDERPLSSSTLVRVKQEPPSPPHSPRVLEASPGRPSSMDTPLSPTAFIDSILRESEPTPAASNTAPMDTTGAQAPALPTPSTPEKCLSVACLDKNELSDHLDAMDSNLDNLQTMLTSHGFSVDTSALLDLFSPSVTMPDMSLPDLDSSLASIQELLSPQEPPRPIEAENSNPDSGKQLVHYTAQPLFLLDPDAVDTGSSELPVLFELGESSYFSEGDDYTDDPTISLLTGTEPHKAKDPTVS

[7] = HIV-1 AD8 envelope cell-cell fusion blockers – cherry-pick, dose response (AID 652062); assay type: functional, cell-based;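 further: luciferase signal from cell-cell fusion driven by HIV-1 clade B AD8 Env; potency is for inhibitors of fusion seen as a drop in luminescence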
[8] = blockers of HIV-1 ZM109 envelope-driven cell-cell fusion – HeLa effector, CEM target cells, luciferase, cherry-pick, dose response (AID 652058); assay type: functional, cell-based;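 further: luciferase signal from HIV-1 Env mediated cell-cell fusion of effector and target cells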
[9] = microbe, parasite or virus in culture; assay type: functional; details: Mycobacterium tuberculosis
[10] = biological target: T4, Protein RecA (Mycobacterium tuberculosis, UniProt P9WHJ3); assay: Fluorescence Cell-Free Homogeneous Dose Retest to Identify Inhibitors of RecA-Intein Splicing Activity. [Related pubchem assays (depositor defined):AID2097, AID2223, AID489010, AID492950]; assay type: functional
T4 sequence (P9WHJ3 whole entry): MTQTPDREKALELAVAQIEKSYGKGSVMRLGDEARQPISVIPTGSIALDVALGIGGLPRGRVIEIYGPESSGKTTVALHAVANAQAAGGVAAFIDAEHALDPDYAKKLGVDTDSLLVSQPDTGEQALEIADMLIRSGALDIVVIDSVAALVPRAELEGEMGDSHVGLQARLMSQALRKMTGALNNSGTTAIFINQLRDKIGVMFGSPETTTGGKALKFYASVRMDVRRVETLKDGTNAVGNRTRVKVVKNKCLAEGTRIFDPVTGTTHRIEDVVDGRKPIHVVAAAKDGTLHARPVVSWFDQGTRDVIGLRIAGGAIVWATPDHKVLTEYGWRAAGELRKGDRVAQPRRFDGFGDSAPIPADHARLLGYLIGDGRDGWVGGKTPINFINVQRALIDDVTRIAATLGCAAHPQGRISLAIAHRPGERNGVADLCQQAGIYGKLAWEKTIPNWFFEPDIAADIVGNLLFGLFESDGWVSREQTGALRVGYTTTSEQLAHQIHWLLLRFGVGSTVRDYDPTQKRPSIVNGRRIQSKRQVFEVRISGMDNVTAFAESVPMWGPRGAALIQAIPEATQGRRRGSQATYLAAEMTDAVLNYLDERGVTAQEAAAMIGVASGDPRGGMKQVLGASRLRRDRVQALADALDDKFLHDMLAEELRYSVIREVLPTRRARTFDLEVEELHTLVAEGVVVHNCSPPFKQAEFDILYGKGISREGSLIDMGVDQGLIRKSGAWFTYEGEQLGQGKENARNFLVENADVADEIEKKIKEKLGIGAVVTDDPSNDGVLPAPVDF

[11] = biological target: T5, Replicative DNA helicase DnaB (Mycobacterium tuberculosis, UniProt P9WMR3); assay: DnaB intein splicing inhibitors, dose response, biochemical, cell-free fluorescence (AID 449749); assay type: functional
T5 sequence (P9WMR3 whole entry): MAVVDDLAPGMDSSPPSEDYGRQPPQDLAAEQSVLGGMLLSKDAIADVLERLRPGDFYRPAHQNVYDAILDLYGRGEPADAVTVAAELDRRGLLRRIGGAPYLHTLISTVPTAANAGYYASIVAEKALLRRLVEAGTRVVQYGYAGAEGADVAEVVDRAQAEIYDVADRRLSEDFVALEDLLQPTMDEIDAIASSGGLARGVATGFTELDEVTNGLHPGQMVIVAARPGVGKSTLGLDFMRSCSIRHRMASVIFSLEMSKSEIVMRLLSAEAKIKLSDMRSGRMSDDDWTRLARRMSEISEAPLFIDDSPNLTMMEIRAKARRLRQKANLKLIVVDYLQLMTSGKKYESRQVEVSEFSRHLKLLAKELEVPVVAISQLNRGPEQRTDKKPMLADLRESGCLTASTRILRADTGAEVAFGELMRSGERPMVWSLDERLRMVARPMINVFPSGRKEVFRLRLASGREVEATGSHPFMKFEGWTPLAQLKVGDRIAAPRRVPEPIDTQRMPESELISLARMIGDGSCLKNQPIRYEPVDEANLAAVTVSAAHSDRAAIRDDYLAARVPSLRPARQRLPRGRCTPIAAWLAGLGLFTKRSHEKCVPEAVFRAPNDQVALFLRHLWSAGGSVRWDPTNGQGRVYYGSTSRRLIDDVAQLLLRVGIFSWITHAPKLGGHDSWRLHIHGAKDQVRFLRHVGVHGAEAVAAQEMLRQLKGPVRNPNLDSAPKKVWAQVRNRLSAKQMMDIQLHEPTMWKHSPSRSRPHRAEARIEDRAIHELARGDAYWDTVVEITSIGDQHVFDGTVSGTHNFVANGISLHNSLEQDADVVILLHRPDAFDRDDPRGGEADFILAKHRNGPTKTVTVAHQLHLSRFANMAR

[12] = tested on: Streptococcus sp. 'group A'; assay: Streptococcus pyogenes SK(-)GAS viability under kanamycin – luminescence, BacTiterGlo, confirmation, counter-screen for streptokinase expression inhibitor project, dose response (AID 1900); assay type: functional, organism-based
[13] = cells; assay type: functional
[14] = tested on: Streptococcus; assay: GAS UMAA2166 growth inhibition – luminescence, BacTiterGlo, counter-screen for streptokinase expression inhibitor project, dose response (AID 1915); assay type: functional, organism-based;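 further: potency for reduction of bacterial viability or growth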
[15] = non-specific 3'UTR reporter inhibition in Clone20-Shn3RL – cell-based, Renilla luciferase, cherry-picked, counter-screen for Shn3 inhibitor project, dose response (AID 624133); assay type: functional
[16] = tested on: INS1; assay: INS-1E survival protection against cytokine death – cell-based, luminescence, retest, dose response (AID 449756); assay type: functional; details: Rattus norvegicus;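 further: cell death triggered by IL-1 beta plus TNF-alpha plus IFN-gamma mixture; protective hits raise ATP signal compared with cytokine alone wells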
[17] = reduction of Shn3 3'UTR-driven luciferase in osteoblasts – cell-based, Clone20 osteoblasts, firefly luciferase, cherry-picked, dose response (AID 624132); assay type: functional;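 further: firefly luciferase luminescence from reporter carrying the Shn3 3'UTR in osteoblasts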
[18] = tested on: P388; assay: cells; assay type: functional; details: Mus musculus;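 further: compound exposure lasted 48 hours before growth was measured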
[19] = tested on: SN12K1; assay: cells; assay type: functional; details: Homo sapiens

Sequence of FAD-linked sulfhydryl oxidase ALR (P55789 whole entry): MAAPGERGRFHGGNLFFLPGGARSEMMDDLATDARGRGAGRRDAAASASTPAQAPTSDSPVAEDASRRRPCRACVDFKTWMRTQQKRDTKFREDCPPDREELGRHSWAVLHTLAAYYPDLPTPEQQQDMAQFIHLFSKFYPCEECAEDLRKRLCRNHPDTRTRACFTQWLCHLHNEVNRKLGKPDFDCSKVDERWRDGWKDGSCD

COc1cccc(N2CCN(C(=O)C3CCCN(S(=O)(=O)c4c[nH]cn4)C3)CC2)c1 (stereo not drawn)
AC50 [1]: 16.8 µM (active)

O=C(NNc1c2ccccc2nc2ccccc12)c1cccc(O)c1
AC50 [1]: 0.738 µM (active)

Nc1ccc(Sc2ccccc2CC(=O)O)cc1
IC50 [2]: > 100 µM (active)

Cc1ccnc(NC(c2ccccn2)c2c(C)[nH]c3ccccc23)c1 (stereo not drawn)
AC50 [1]: 1.39 µM (active)

COc1ccc(C(=O)c2ccc(Cl)c([N+](=O)[O-])c2)cc1
AC50 [1]: 3.95 µM (active) | AC50 [3]: 7.17 µM (active)

COc1cc(/C=C2\SC(=S)N(NS(=O)(=O)c3ccccc3)C2=O)ccc1O
IC50 [2]: 14.5 µM (active) | IC50 [4]: 38.8 µM (active) | IC50 [5]: 24.5 µM (active)

Oc1ccc(-c2nc3cnccn3c2Nc2ccc3c(c2)OCCO3)cc1
EC50 [6]: 11 µM (active) | IC50 [2]: 4.14 µM (active)

CC(C)CNS(=O)(=O)c1ccc(CCC(=O)N2CCN(Cc3ccc4c(c3)OCO4)CC2)cc1
AC50 [7]: 27.2 µM (active) | AC50 [8]: 12.1 µM (active)

Cc1cc(C(=O)CCl)c(C)n1CCc1ccc(Cl)cc1
EC50 [6]: > 260 µM (inconclusive) | CC50 [9]: 2.48 µM (active) | EC50 [10]: 7.32 µM (active) | AC50 [11]: 8.7 µM (active)

COc1ccc2[nH]c3ccc(OC)cc3c2c1
AC50 [1]: 8.33 µM (active)

Cc1ccc2nccc(C(=O)N3CCCC(Nc4ccc(F)cc4)C3)c2c1 (stereo not drawn)
AC50 [1]: 3.03 µM (active)

CN1CCCNc2nc3ccccc3nc21
AC50 [1]: 9.27 µM (active)

O=C(Nc1nnc(-c2ccc3c(c2)CCCC3)o1)c1c(F)cccc1F
AC50 [1]: 7.99 µM (active) | EC50 [12]: 1.77 µM (active) | IC50 [13]: 4.08 µM (active) | EC50 [14]: 7.35 µM (active)

Clc1ccc(-c2cc(-c3nnc4n3CCCCC4)c3ccccc3n2)cc1
AC50 [15]: 11.1 µM (active) | AC50 [16]: 6.17 µM (active) | AC50 [17]: 5.59 µM (active)

Cc1noc(C)c1C(=O)Nc1ccc(N(C)C)cc1
AC50 [1]: 1.3 µM (active)

CCCCCOc1ccc(/C=N\c2ccc(-c3ccc(/N=C\c4ccc(OCCCCC)cc4)c(OC)c3)cc2OC)cc1
GI50 [18]: > 100 µM (inactive) | GI50 [19]: > 100 µM (inactive)

CC(=O)Nc1ccc(/C=C/c2ccc(NC(=O)Nc3ccc(/C=C/c4ccc(NC(C)=O)cc4S(=O)(=O)O)c(S(=O)(=O)O)c3)cc2S(=O)(=O)O)c(S(=O)(=O)O)c1
GI50 [18]: > 100 µM (inactive) | GI50 [19]: > 100 µM (inactive)

COc1ccc(CC(=O)N/N=C(\C)CC(=O)Nc2ccc(N(C)C)cc2)cc1OC
IC50 [2]: 10.1 µM (active)
